{
  "source": "patent US20260055118A1",
  "about": "“VISIBLE LIGHT SENSITIVE PHOTOREMOVABLE PROTECTING GROUPS, PREPARATION PROCESS THEREOF, PHOTOACTIVATABLE CONJUGATES COMPRISING THEM AND USES THEREOF” (HUN-REN TERMÉSZETTUDOMÁNYI KUTATÓKÖZPONT, priority 2022, published 2026)",
  "key": {"[1]": {"assay": "Uncaging quantum yield determination relative to BODIPY reference", "assay_type": "physicochemical", "settings": "calculated from the disappearance of the target conjugate; green light irradiation", "protocol": "The relative photochemical quantum yields of the uncaging reactions together with the degradation quantum yields were determined from the results of the quantitative HPLC-UV experiments. In all cases, green light irradiation was used since all target conjugates absorbed in this range as well as the reference BODIPY. The photochemical quantum yields were determined using the following equation:\n[formula] • where • Φu is the photochemical quantum yield of the sample • Φu,ref is the photochemical quantum yield of the reference • k is the obtained reaction rate constant of the photoreaction of the sample • kref is the obtained reaction rate constant of the photoreaction of the reference • c is the concentration of the sample • cref is the concentration of the reference • V is the volume of the sample • Vref is the volume of the reference • a is the absorption correction factor of the sample • aref is the absorption correction factor of the reference\nThe absorption correction factors (a) were determined from the molar absorption coefficients and the green LED emission data obtained by the fluorimeter. […] In other words, the transmittance at each wavelength together with the emission data of the light source can be used to calculate the percentage of absorbed photons according to the following equation:\n[formula] • where • T(λ) is the transmittance at each wavelength (determined from the molar absorption coefficients) • F(λ) is the LED emission at each wavelength • λmin, λmax is the LED emission range.\nThe rate constants of the photoreactions were determined by considering the reactions monoexponential with an initial linear phase (up to 10-20% degradation). First, the concentration vs. HPLC-UV peak were determined for each cargo moieties. […] The rate constants were determined for both the reference (with known Φu) and the sample. For reference, a commonly known BODIPY derivative was used with a similar phenylacetic acid-derived cargo unit (substrate 7 from REF^40), Φu=0.15%:\nThe calculated photochemical quantum yields together with uncaging cross-sections or quantum efficiencies (product of the molar absorption coefficient at a given wavelength, shown in parentheses and the photochemical quantum yield) are shown in Table 2. In the table, Φu is the photochemical quantum yield of the release; Φdeg is the photochemical quantum yield of degradation; ε×Φu is the uncaging cross-section or quantum efficiency of the release at a given wavelength in parentheses."}, "SK-OV-3 cells": {"test_system": "SK-OV-3 cells", "assay": "Cytotoxicity determination, MTT assay, with light irradiation and in the dark", "assay_type": "cell-based, human", "protocol": "A viability test was carried out to assess the toxicity of SN38 as well as the photoremovable protecting group-SN38 conjugates X1′-SN38 and X2′-SN38 after light irradiation and in the dark on SKOV3 cells. Cells were transferred into a 48-well plate (Thermo Fisher Scientific, 130187) (4,500 cells/well) and incubated for 20-24 h at 37° C. in a 5% CO2 atmosphere in McCoy's 5A (Modified) Medium, HEPES (Gibco 22330021) supplemented with 10% FBS (Gibco 10500-064), 1% penicillin-streptomycin (Gibco 15140-122). Cells were treated with compounds in the concentration range of 10^−11-10^−4 M for 90 min followed by light irradiation or kept in the dark at 37° C. in 5% CO2 atmosphere. After treatment and irradiation, cells were kept at 37° C. in 5% CO2 atmosphere for 72 hours. After the incubation period, supernatants were replaced with 0.5 mg/ml MTT (3-(4,5-dimethylthiazol-2-yl)-2,5-diphenyltetrazolium bromide; Sigma M5655-1G) solution (in complete DMEM: Dulbecco's modified Eagle's medium (DMEM, Gibco 41965-039), supplemented with 10% FBS (Gibco 10500-064), 1% penicillin-streptomycin (Gibco 15140-122), 1% Glutamax (Gibco 35050-061) and 1% sodium pyruvate (Life Technologies, Gibco 11360-070)) and incubated for 120 min at 37° C. in the dark. The insoluble formazan crystals were dissolved in 250 μl DMSO. Absorbance was detected at 540 nm using a Biotek Synergy 2 Cytation 3 imaging plate reader with Gen5 software version 3.08 (Biotek Winooski, VT, USA). Viability was expressed as percentage (n=3) of the readings of untreated control cells.\nTo determine phototoxic properties of compounds X1′-SN38 and X2′-SN38, standard MTT assays were performed on SK—OV-3 cells. To irradiate multiple specimens, an LED panel was custom-made for a 48-well plate consisting of 24 LEDs using green (4 W input power, λmax=549 nm half-width: 16 nm, output power: 72 mW), orange (4 W input power, λmax=605 nm half-width: 10 nm, output power: 140 mW) and red (4 W input power, λmax=658 nm half-width: 10 nm, for Q=CMe2 output power: 210 mW) LED irradiation. The board was specifically designed for the plates and offer water cooling to minimize heat shock to cells. Every second well can be irradiated with an individual LED. First, the cytotoxicity of the free active agent, SN38 was determined to be EC50 ^˜6 nM. Treatment of cells with the photoactivatable SN38 derivatives for 72 hours in the absence of light (without washing) produced moderate cytotoxic effects, sigificantly lowering the effectiveness of the active agent. This confirms that SN38 is a suitable candidate for light-activated prodrug applications. […] Reducing the irradiation time down to 10 s still produced significant phototoxicity in higher concentrations (see FIG. 8a for compound X2′-SN38) even assuming incomplete uncaging as a result of the substantial dark stability of compound X2′-SN38."}},
  "note": "Like-named read-outs stand apart in the source and are kept apart here.",
  "data": [
    {"smiles": "CCc1c2c(nc3ccc(OC(=O)N(C)CCN(C)C(=O)OC(C)c4c5ccc(=[N+]6CCCC6)cc-5oc5cc(N6CCCC6)ccc45)cc13)-c1cc3c(c(=O)n1C2)COC(=O)C3(O)CC.[I-]", "note": "(mixture of isomers) [X1′-SN38]", "values": [
      {"measurement": "Φdeg, degradation quantum yield", "setting": "[1]", "value": 0.15, "unit": "%"},
      {"measurement": "EC50", "setting": "SK-OV-3 cells; dark, (green) series, read-out: Dark EC50 values", "value": 4000, "unit": "nM"},
      {"measurement": "EC50", "setting": "SK-OV-3 cells; dark, (orange) series, read-out: Dark EC50 values", "value": 1100, "unit": "nM"},
      {"measurement": "EC50", "setting": "SK-OV-3 cells; green light irradiation, 15 min, read-out: EC50 values after irradiation", "value": 63, "unit": "nM"},
      {"measurement": "Photoindex", "setting": "SK-OV-3 cells; green light, 15 min", "value": 64},
      {"measurement": "Photoindex", "setting": "SK-OV-3 cells; orange light, 5 min", "value": 45},
      {"measurement": "EC50", "setting": "SK-OV-3 cells; orange light, 5 min, read-out: EC50 values after irradiation", "value": 23, "unit": "nM"}
    ]}
  ]
}
